In patent US20240415814A1, “PHARMACEUTICAL COMPOSITION COMPRISING 1-(3-CYANO-1-ISOPROPYL-INDOL-5-YL)PYRAZOLE-4-CARBOXYLIC ACID” (LG CHEM, LTD., priority 2021, published 2024):

Key:
serum uric acid [1] = assay: Phase 2 clinical trial (NCT03934099): serum uric acid concentration in gout patients; type: in vivo, human; conditions: for average maximum degree of reduction in serum uric acid: FIG. 3; for patients with serum uric acid concentration <6 mg/dL: gout patients, with colchicine 0.6 mg; for average serum uric acid concentration: within 2 weeks after starting administration
Protocol: A phase 2 clinical trial was conducted to analyze the dosage, TEAEs, and the like when the compound of Formula 1 (1-(3-cyano-1-isopropyl-indol-5-yl)pyrazol-4-carboxylic acid; compound of Example 1) is administered to a gout patient group.
• 1. Written informed consent (signed and dated) provided voluntarily prior to the start of the study. • 2. Male or female aged from 18 to 75 • 3. History or experience of hyperuricemia and gout in accordance with the criteria of the American College of Rheumatology. • 4. Self-reported history of 2 or more gout flare within 12 months prior to screening visit (Visit 1). • 5. Serum uric acid (sUA) levels at Visit 1 of 6.0 mg/dL or more in subjects who were receiving urate lower therapy (ULT) with allopurinol, febuxostat, probenecid, or lesinurad; and sUA levels at Visit 1 of 8.0 mg/dL or more and 12.0 mg/dL or less in subjects who had no history of receiving the ULT or were not receiving the ULT at visit 1. • 6. sUA levels of 8.0 mg/dL or more and 12.0 mg/dL or less at Visit 3. • 7. Body mass index of 42 kg/m^2 or less at screening visit (Visit 1). • 8. Estimated glomerular filtration rate (eGFR) of 60 mL/min/1.73 m^2 or more at screening visit (Visit 1). • 9. Subjects of childbearing potential with a negative pregnancy test result at screening visit (Visit 1). Subjects (female subjects of childbearing potential and male subjects with partners of childbearing potential) consented to use adequate methods of contraception to avoid pregnancy during the study period. • 10. Able to understand the study procedure and relevant risk, and willing to comply with the visit/protocol schedule.
• 1. Presence of secondary hyperuricemia caused by myeloproliferative disorder, organ transplantation, or the like. • 2. Experience of any active acute gout flare within 3 weeks prior to screening visit (Visit 1). • 3. Aspartate aminotransferase or alanine aminotransferase level exceeds 2 times upper limit of normal (ULN) at screening visit (Visit 1). • 4. Creatine kinase level exceeds 2.5 times ULN at screening visit (Visit 1). • 5. Presence of previous hypersensitivity to colchicine. • 6. Patients who have ever prescribed pegloticase within 3 months prior to screening visit (Visit 1). • 7. If a stable dose of drugs (losartan, fibrate, thiazide diuretics, loop diuretics, and acetylsalicylic acid) known to affect sUA levels has not been administered during the past 6 weeks prior to screening visit (Visit 1), acetylsalicylic acid is not allowed to use 325 mg/day or more. • 8. Patients who have ever received systemic corticosteroids for 10 or more consecutive days within 1 month prior to screening visit (Visit 1). • 9. Presence of need or potential availability of systemic immunosuppressive drugs or immunomodulatory therapies (e.g., azathioprine, 6-mercaptopurine, and cyclosporine) • 10. Patients who have received high or moderate doses of cytochrome P450 3A4 inhibitors or P-glycoprotein inhibitors within 14 days prior to screening visit (Visit 1). • 11. History of xanthinuria. • 12. History of rheumatoid arthritis. • 13. Presence of active peptic ulcer disease requiring treatment. • 14. Presence of unstable angina, New York Heart Association class III or IV heart failure, myocardial infarction, stroke, deep vein thrombosis, percutaneous coronary intervention (with or without stent), or coronary artery bypass graft within the past 12 months prior to screening visit (Visit 1); current administration of anticoagulants; or the presence of clinically significant electrocardiogram abnormalities in the investigator's opinion at screening visit (Visit 1). • 15. Presence of uncontrolled hypertension (systolic blood pressure>160 mmHg or diastolic blood pressure>95 mmHg) at screening visit (Visit 1). • 16. History of myositis/myopathy, rhabdomyolysis, Stevens-Johnson syndrome, or toxic epidermal necrolysis. • 17. […]

serum uric acid [2] = assay: Pharmacodynamics (serum uric acid) according to renal function of patients; type: in vivo, human; conditions: for AUEC0-24 of serum uric acid (baseline corrected), geometric LS mean / Cmean, 24 of serum uric acid (baseline corrected), geometric LS mean / Emax of serum uric acid (baseline corrected), geometric LS mean: 200 mg once daily, Day 7
Protocol: PK and PD of the compound of Example 1 were assessed under patient groups with various degrees of renal function. […] A total of 37 patients were classified into 4 groups as follows based on renal function according to eGFR which was calculated by MDRD formula: • Normal: eGFR≥90 mL/min/1.73 m^2, n=13 • Mild (mild renal function impairment): eGFR 60-less than 90 mL/min/1.73 m^2, n=8 • Moderate (moderate renal function impairment): eGFR 30-less than 60 mL/min/1.73 m^2, n=8 • Severe (severe renal function impairment): eGFR<30 mL/min/1.73 m^2 and not on hemodialysis, n=8
Blood and urine samples were collected before dosing and up to 24 or 48 hours after the final dosing for PK/PD assessment.
An analysis of variance (ANOVA) model was fitted to the log-transformed baseline corrected PD parameters, with renal function impairment group fitted as a fixed effect. Point estimates and 90% CIs for differences between the least square means on the log scale were exponentiated to express the results as ratios of geometric means and CIs on the original scale.

[3] = 200 mg/day oral, 12 weeks, listed as 1-(3-cyano-1-isopropyl-indol-5-yl)pyrazol-4-carboxylic acid
[4] = mild renal function impairment (eGFR 60-<90), 50 mg, 12 weeks
[5] = mild renal function impairment (eGFR 60-<90), 100 mg, 12 weeks
[6] = mild renal function impairment (eGFR 60-<90), 200 mg, 12 weeks
[7] = moderate renal function impairment (eGFR 30-<60), at each dose (50, 100, 200 mg), 12 weeks
[8] = normal renal function (eGFR>=90), 50 mg, 12 weeks
[9] = normal renal function (eGFR>=90), 100 mg, 12 weeks
[10] = normal renal function (eGFR>=90), 200 mg, 12 weeks
[11] = normal renal function (control)

CC(C)n1cc(C#N)c2cc(-n3cc(C(=O)O)cn3)ccc21 [Example 1, 1-(3-cyano-1-isopropyl-indol-5-yl)pyrazol-4-carboxylic acid]
average maximum degree of reduction in serum uric acid (serum uric acid [1]; 50 mg): 46.7%
patients with serum uric acid concentration <4 mg/dL (serum uric acid [1]; 50 mg/day oral, 12 weeks): 18% (6/34 people)
patients with serum uric acid concentration <6 mg/dL (serum uric acid [1]; 50 mg/day oral, 12 weeks): 59%
average serum uric acid concentration (serum uric acid [1]; 50 mg/day): 5.5 mg/dL
average maximum degree of reduction in serum uric acid (serum uric acid [1]; 100 mg): 50.6%
patients with serum uric acid concentration <4 mg/dL (serum uric acid [1]; 100 mg/day oral, 12 weeks): 29% (11/38 people)
patients with serum uric acid concentration <6 mg/dL (serum uric acid [1]; 100 mg/day oral, 12 weeks): 63%
average serum uric acid concentration (serum uric acid [1]; 100 mg/day): 4.9 mg/dL
average maximum degree of reduction in serum uric acid (serum uric acid [1]; 200 mg): 66.8%
patients with serum uric acid concentration <4 mg/dL (serum uric acid [1]; 200 mg/day oral, 12 weeks): 54% (20/37 people)
patients with serum uric acid concentration <6 mg/dL (serum uric acid [1]; 200 mg/day oral, 12 weeks): 78%
patients with serum uric acid concentration <4 mg/dL (serum uric acid [1]; [3]): 54%
patients with serum uric acid concentration <5 mg/dL (serum uric acid [1]; [3]): 62%
average serum uric acid concentration (serum uric acid [1]; 200 mg/day): 3.8 mg/dL
serum uric acid concentration kept within the normal range during the dosing period (serum uric acid [1]; doses of 50 mg, 100 mg and 200 mg, from week 2, FIG. 2): < 6.0 mg/dL
patients adjusted to serum uric acid <5.0 mg/dL (serum uric acid [1]; [4]): 33%
patients adjusted to serum uric acid <6.0 mg/dL (serum uric acid [1]; [4]): 53%
patients adjusted to serum uric acid <5.0 mg/dL (serum uric acid [1]; [5]): 44%
patients adjusted to serum uric acid <6.0 mg/dL (serum uric acid [1]; [5]): 67%
patients adjusted to serum uric acid <5.0 mg/dL (serum uric acid [1]; [6]): 55%
patients adjusted to serum uric acid <6.0 mg/dL (serum uric acid [1]; [6]): 77%
patients adjusted to serum uric acid <5.0 mg/dL (serum uric acid [1]; [7]): ≥ 50%
patients adjusted to serum uric acid <6.0 mg/dL (serum uric acid [1]; [7]): ≥ 50%
patients adjusted to serum uric acid <5.0 mg/dL (serum uric acid [1]; [8]): 53%
patients adjusted to serum uric acid <6.0 mg/dL (serum uric acid [1]; [8]): 59%
patients adjusted to serum uric acid <5.0 mg/dL (serum uric acid [1]; [9]): 43%
patients adjusted to serum uric acid <6.0 mg/dL (serum uric acid [1]; [9]): 57%
patients adjusted to serum uric acid <5.0 mg/dL (serum uric acid [1]; [10]): 71%
patients adjusted to serum uric acid <6.0 mg/dL (serum uric acid [1]; [10]): 79%
AUEC0-24, ratio of geometric LS means (serum uric acid [2]; Mild/Normal): 0.980
Cmean, 24, ratio of geometric LS means (serum uric acid [2]; Mild/Normal): 0.988
Emax, ratio of geometric LS means (serum uric acid [2]; Mild/Normal): 0.979
AUEC0-24, ratio of geometric LS means (serum uric acid [2]; Moderate/Normal): 1.02
Cmean, 24, ratio of geometric LS means (serum uric acid [2]; Moderate/Normal): 1.03
Emax, ratio of geometric LS means (serum uric acid [2]; Moderate/Normal): 1.02
AUEC0-24, ratio of geometric LS means (serum uric acid [2]; Severe/Normal): 1.05
Cmean, 24, ratio of geometric LS means (serum uric acid [2]; Severe/Normal): 1.03
Emax, ratio of geometric LS means (serum uric acid [2]; Severe/Normal): 0.911
GLSMRs for Cmean,24, Emax and AUEC0-24 of sUA (serum uric acid [2]; across all renal function impairment groups versus normal): approximately 1
AUEC0-24 of serum uric acid (baseline corrected), geometric LS mean (serum uric acid [2]; mild impairment): 111 mg·h/dL
Cmean, 24 of serum uric acid (baseline corrected), geometric LS mean (serum uric acid [2]; mild impairment): 4.53 mg/dL
Emax of serum uric acid (baseline corrected), geometric LS mean (serum uric acid [2]; mild impairment): 4.43 mg/dL
AUEC0-24 of serum uric acid (baseline corrected), geometric LS mean (serum uric acid [2]; moderate impairment): 115 mg·h/dL
Cmean, 24 of serum uric acid (baseline corrected), geometric LS mean (serum uric acid [2]; moderate impairment): 4.74 mg/dL
Emax of serum uric acid (baseline corrected), geometric LS mean (serum uric acid [2]; moderate impairment): 4.63 mg/dL
AUEC0-24 of serum uric acid (baseline corrected), geometric LS mean (serum uric acid [2]; [11]): 113 mg·h/dL
Cmean, 24 of serum uric acid (baseline corrected), geometric LS mean (serum uric acid [2]; [11]): 4.59 mg/dL
Emax of serum uric acid (baseline corrected), geometric LS mean (serum uric acid [2]; [11]): 4.52 mg/dL
AUEC0-24 of serum uric acid (baseline corrected), geometric LS mean (serum uric acid [2]; severe impairment): 119 mg·h/dL
Cmean, 24 of serum uric acid (baseline corrected), geometric LS mean (serum uric acid [2]; severe impairment): 4.72 mg/dL
Emax of serum uric acid (baseline corrected), geometric LS mean (serum uric acid [2]; severe impairment): 4.12 mg/dL
